Results as given in US11247965B2 (VenatoRx Pharmaceuticals, Inc., priority 2017, dated 2022).

Columns and labels:
[1] = system: HBV replication in HepAD38 cells; test: Anti-HBV activity in HepAD38 cells, extracellular HBV DNA by QPCR; format: cell-based, HBV (genotype D, serotype ayw); details: Hepatitis B virus, HePAD38, 168 h, read-out: Anti-HBV EC50, HepAD38 cells, extracellular HBV DNA by QPCR, 7 days of incubation
In short: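 HepAD38 cells (HepG2 with tet-repressible HBV genotype D genome) seeded overnight, tetracycline removed, then treated 7 days with compounds (half-log dilutions, 30 μM–10 nM; 1:200 from DMSO). Supernatant HBV DNA quantified by QPCR against standard curve; % inhibition vs vehicle, EC50 by 4-parameter fit.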

[2] = In vitro cytotoxicity, MTT cell viability assay in HepG2 cells; format: cell-based; details: human, Cytotoxicity CC50
In short: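 Read-out: MTT formazan absorbance at 492 nm, expressed as % of vehicle signal; CC50 by 4-parameter non-linear regression. Parental HepG2, 20,000 cells/well, treated 7 days with compound from 30 μM down to 1.0 nM.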

Work on `Cc1cc(NC(=O)c2ccn(C)c2C(F)(F)C(=O)NC(C)C(F)(F)F)ccc1F` (centres unmarked) [Example 112, 2-(1,1-difluoro-2-oxo-2-((1,1,1-trifluoropropan-2-yl)amino)ethyl)-N-(4-fluoro-3-methylphenyl)-1-methyl-1H-pyrrole-3-carboxamide] yielded an EC50 [1] greater than 30 µM and a CC50 at 7 days [2] greater than 30 µM.

With `Cc1cc(NC(=O)c2cn(C)c(C(F)(F)C(=O)NC(C)(C)C)c2C)ccc1F` [Example 113, 5-(2-(tert-butylamino)-1,1-difluoro-2-oxoethyl)-N-(4-fluoro-3-methylphenyl)-1,4-dimethyl-1H-pyrrole-3-carboxamide] the EC50 [1] was less than 5 µM and the CC50 at 7 days [2] was greater than 30 µM.

`Cc1cc(NC(=O)c2c(C)cn(C)c2C(F)(F)C(=O)NC(C)(C)C)ccc1F` [Example 114, 2-(2-(tert-butylamino)-1,1-difluoro-2-oxoethyl)-N-(4-fluoro-3-methylphenyl)-1,4-dimethyl-1H-pyrrole-3-carboxamide] gave an EC50 [1] greater than 30 µM and a CC50 at 7 days [2] greater than 30 µM.

`C=Cc1ccc(C(=O)Nc2ccc(F)c(C)c2)cc1C(F)(F)C(=O)N1CCC(O)CC1` [Example 115, 3-(1,1-difluoro-2-(4-hydroxypiperidin-1-yl)-2-oxoethyl)-N-(4-fluoro-3-methylphenyl)-4-vinylbenzamide] gave an EC50 [1] of less than 5 µM and a CC50 at 7 days [2] greater than 30 µM.

Compound `Cc1cc(NC(=O)c2ccc([C@@H](O)CO)c(C(F)(F)C(=O)N3CCC(O)CC3)c2)ccc1F` [Example 116, (R)-3-(1,1-difluoro-2-(4-hydroxypiperidin-1-yl)-2-oxoethyl)-4-(1,2-dihydroxyethyl)-N-(4-fluoro-3-methylphenyl)benzamide] has an EC50 [1] greater than 30 µM and a CC50 at 7 days [2] greater than 30 µM.

In the case of `Cc1cc(NC(=O)c2ccc([C@@H](O)CO)c(C(F)(F)C(=O)NC(C)(C)C)c2)ccc1F` [Example 117, (R)-3-(2-(tert-butylamino)-1,1-difluoro-2-oxoethyl)-4-(1,2-dihydroxyethyl)-N-(4-fluoro-3-methylphenyl)benzamide], the EC50 [1] is reported as greater than 30 µM and the CC50 at 7 days [2] is reported as greater than 30 µM.

Work on `Cc1cc(NC(=O)c2ccc(F)c(C(F)(F)C(=O)N3CCC(C(=O)O)CC3)c2)ccc1F` [Example 118, 1-(2,2-difluoro-2-(2-fluoro-5-((4-fluoro-3-methylphenyl)carbamoyl)phenyl)acetyl)piperidine-4-carboxylic acid] yielded an EC50 [1] of less than 5 µM and a CC50 at 7 days [2] greater than 30 µM.

With `CC(C)(C)NC(=O)C(O)c1cc(C(=O)Nc2ccc(F)c(F)c2)ccc1F` (centres unmarked) [Example 119, 3-(2-(tert-butylamino)-1-hydroxy-2-oxoethyl)-N-(3,4-difluorophenyl)-4-fluorobenzamide] the EC50 [1] was 5 to 30 µM and the CC50 at 7 days [2] was 5 to 30 µM.

`O=C(Nc1ccc(F)c(F)c1)c1ccc(F)c(C(O)C(=O)N2CCC(O)CC2)c1` (centres unmarked) [Example 120, N-(3,4-difluorophenyl)-4-fluoro-3-(1-hydroxy-2-(4-hydroxypiperidin-1-yl)-2-oxoethyl)benzamide] showed an EC50 [1] greater than 30 µM and a CC50 at 7 days [2] greater than 30 µM.

`Cc1cc(NC(=O)c2cc(C(O)C(=O)NC(C)(C)C)cn2C)ccc1F` (centres unmarked) [Example 121, 4-(2-(tert-butylamino)-1-hydroxy-2-oxoethyl)-N-(4-fluoro-3-methylphenyl)-1-methyl-1H-pyrrole-2-carboxamide] showed an EC50 [1] of less than 5 µM and a CC50 at 7 days [2] greater than 30 µM.

In the case of `Cc1cc(NC(=O)c2cc(C(F)(F)C(=O)N3CCC(B(O)O)CC3)n(C)c2)ccc1F` [Example 122, (1-(2,2-difluoro-2-(4-((4-fluoro-3-methylphenyl)carbamoyl)-1-methyl-1H-pyrrol-2-yl)acetyl)piperidin-4-yl)boronic acid], the EC50 [1] is reported as 5 to 30 µM and the CC50 at 7 days [2] is reported as greater than 30 µM.

Compound `Cc1cc(NC(=O)c2cc(C(C)(O)C(=O)NC(C)(C)C)cn2C)ccc1F` (centres unmarked) [Example 123, 4-(1-(tert-butylamino)-2-hydroxy-1-oxopropan-2-yl)-N-(4-fluoro-3-methylphenyl)-1-methyl-1H-pyrrole-2-carboxamide] has an EC50 [1] of 5 to 30 µM and a CC50 at 7 days [2] of 5 to 30 µM.

Compound `Cc1cc(NC(=O)c2cc(C(O)(C(=O)NC(C)(C)C)C(C)C)cn2C)ccc1F` (centres unmarked) [Example 124, 4-(1-(tert-butylamino)-2-hydroxy-3-methyl-1-oxobutan-2-yl)-N-(4-fluoro-3-methylphenyl)-1-methyl-1H-pyrrole-2-carboxamide] has an EC50 [1] of 5 to 30 µM and a CC50 at 7 days [2] greater than 30 µM.

In the case of `Cc1cc(NC(=O)c2cc(C(F)(F)C(=O)N[C@H]3CC[C@@H](O)CC3)n(C)c2)ccc1F` [Example 125, 5-(1,1-difluoro-2-(((1s,4s)-4-hydroxycyclohexyl)amino)-2-oxoethyl)-N-(4-fluoro-3-methylphenyl)-1-methyl-1H-pyrrole-3-carboxamide], the EC50 [1] is reported as less than 5 µM and the CC50 at 7 days [2] is reported as greater than 30 µM.

In the case of `Cc1cc(NC(=O)c2ccn(C)c2C(F)(F)C(=O)NC2CCC(O)CC2)ccc1F` (centres unmarked) [Example 126, 2-(1,1-difluoro-2-(((1s,4s)-4-hydroxycyclohexyl)amino)-2-oxoethyl)-N-(4-fluoro-3-methylphenyl)-1-methyl-1H-pyrrole-3-carboxamide], the EC50 [1] is reported as 5 to 30 µM and the CC50 at 7 days [2] is reported as greater than 30 µM.

`Cc1cc(NC(=O)c2cc(C(F)(F)C(=O)N[C@@H]3CCCC[C@H]3O)n(C)c2)ccc1F` [Example 127, 5-(1,1-difluoro-2-(((1R,2R)-2-hydroxycyclohexyl)amino)-2-oxoethyl)-N-(4-fluoro-3-methylphenyl)-1-methyl-1H-pyrrole-3-carboxamide] showed an EC50 [1] of less than 5 µM and a CC50 at 7 days [2] greater than 30 µM.

Compound `Cc1cc(NC(=O)c2ccn(C)c2C(F)(F)C(=O)N[C@@H]2CCCC[C@H]2O)ccc1F` [Example 128, 2-(1,1-difluoro-2-(((1R,2R)-2-hydroxycyclohexyl)amino)-2-oxoethyl)-N-(4-fluoro-3-methylphenyl)-1-methyl-1H-pyrrole-3-carboxamide] has an EC50 [1] of 5 to 30 µM and a CC50 at 7 days [2] greater than 30 µM.

In the case of `Cc1cc(NC(=O)c2cn(C)c(C(F)(F)C(=O)NC(C)(C)CO)c2C)ccc1F` [Example 129, 5-(1,1-difluoro-2-((1-hydroxy-2-methylpropan-2-yl)amino)-2-oxoethyl)-N-(4-fluoro-3-methylphenyl)-1,4-dimethyl-1H-pyrrole-3-carboxamide], the EC50 [1] is reported as less than 5 µM and the CC50 at 7 days [2] is reported as greater than 30 µM.

In the case of `Cc1cc(NC(=O)c2c(C)c(C(O)(C(=O)NC(C)(C)C)C(F)(F)F)c(C)n2C)ccc1F` (centres unmarked) [Example 131, 4-(3-(tert-butylamino)-1,1,1-trifluoro-2-hydroxy-3-oxopropan-2-yl)-N-(4-fluoro-3-methylphenyl)-1,3,5-trimethyl-1H-pyrrole-2-carboxamide], the EC50 [1] is reported as 5 to 30 µM and the CC50 at 7 days [2] is reported as 5 to 30 µM.

With `COCC(C)(C)NC(=O)C(F)(F)c1cc(C(=O)Nc2ccc(F)c(C)c2)cn1C` [Example 132, 5-(1,1-difluoro-2-((1-methoxy-2-methylpropan-2-yl)amino)-2-oxoethyl)-N-(4-fluoro-3-methylphenyl)-1-methyl-1H-pyrrole-3-carboxamide] the EC50 [1] was less than 5 µM and the CC50 at 7 days [2] was greater than 30 µM.

For `Cc1cc(NC(=O)c2cc(C(F)(F)C(=O)NC3(C)CCCOC3)n(C)c2)ccc1F` (centres unmarked) [Example 133, 5-(1,1-difluoro-2-((3-methyltetrahydro-2H-pyran-3-yl)amino)-2-oxoethyl)-N-(4-fluoro-3-methylphenyl)-1-methyl-1H-pyrrole-3-carboxamide], the EC50 [1] was less than 5 µM and the CC50 at 7 days [2] was greater than 30 µM.

Work on `CCn1cc(C(=O)Nc2ccc(F)c(C)c2)cc1C(F)(F)C(=O)NC(C)(C)C` [Example 134, 5-(2-(tert-butylamino)-1,1-difluoro-2-oxoethyl)-1-ethyl-N-(4-fluoro-3-methylphenyl)-1H-pyrrole-3-carboxamide] yielded an EC50 [1] of less than 5 µM and a CC50 at 7 days [2] greater than 30 µM.
